We go through one compound from patent US20120046186A1, “Gene Expression Markers for Prediction of Response to Platinum-Based Chemotherapy Drugs” (priority 2010, published 2012).

The assay concerns HCT 116 cell line. The assay is described as follows: cDNA overexpression of LTBR and TMEM30A: oxaliplatin IC50, cell viability. The assay is classed as cell-based, human. The following applies: 72 h. The source says: FIGS. 5A-5C show the validation of genes identified in the siRNA screen for genes regulating sensitivity or resistance to oxaliplatin. The effect of siRNA-silencing or cDNA overexpression on the IC50 of oxaliplatin was expressed as the log2 fold-shift of the mean IC50 of siRNA-treated (or cDNA-overexpressing) cells relative to the mean IC50 of non-silencing siRNA control-treated (or vector-alone) cells. […] Data represent mean±SEM (n=3).
Full-length LTBR and TMEM30A open reading frames were cloned into pCMV-XL4 (Origene, Rockville, Md.) and validated by sequencing. Transfection was performed using Turbofectin 8.0® (Origene, Rockville, Md.) in a 96-well format as per manufacturer's instructions using 100 ng cDNA per well. Following a 4 hr incubation, 10 μl per well of an 11-point, 2-fold serial dilution of oxaliplatin (50 μM maximum) was then added. Assays were performed in triplicate, using the empty pCMV-XL4 vector as negative control, with biological replicates. […] Overexpression of cDNA was validated by qRT-PCR using the High-Capacity cDNA Reverse Transcription Kit® (Life Technologies, Carlsbad, Calif.) and qPCR using the 7900 HT Fast Real-Time PCR System® (Life Technologies, Carlsbad, Calif.) with gene-specific primers (ABI, Carlsbad, Calif.).

A value given as a limit tells only on which side of the number the result lay.

On to `O=C1[O][Pt]2([NH][C@@H]3CCCC[C@H]3[NH]2)[O]C1=O` [oxaliplatin], for which the “increase of IC50 of oxaliplatin” value is > 2 fold (transient overexpression of full-length LTBR vs empty pCMV-XL4 vector) and > 2 fold (transient overexpression of full-length TMEM30A vs empty pCMV-XL4 vector).
